The experiment deals with Glycolate oxidase (Sus scrofa). The experiment is described as follows: In vitro inhibition of porcine Glycolate oxidase.

`O=C(O)C(=O)CC(=O)c1ccc(-c2ccc(SCC3(O)COc4ccccc4OC3)cc2)cc1` registered an IC50 of 60 nM. In turn, `O=C(O)C(=O)CC(=O)c1ccc(-n2c(-c3ccccc3)cc3ccccc32)cc1` showed an IC50 of 180 nM. `CCCCCCCCCc1ccc(C(=O)CC(=O)C(=O)O)cc1` had an IC50 of 600 nM. `O=C(O)C(=O)CC(=O)c1ccc(-c2ccc(SCc3ccccc3)cc2)cc1` gave an IC50 of 400 nM. In turn, `O=C(O)C(=O)CC(=O)c1ccc(-c2ccc(Br)cc2)cc1` had an IC50 of 63 nM. The same measure for `CC1=C(C=CC(=O)CC(=O)C(=O)O)C(C)(C)CCC1`: 1400 nM; for `O=C(C=Cc1ccccc1)CC(=O)C(=O)O`: 19000 nM; for `CSc1ccc(-c2ccc(C(=O)CC(=O)C(=O)O)cc2)cc1`: 160 nM. The same measure for `O=C(O)C(=O)CC(=O)c1ccc(C2CCCc3ccccc32)cc1` (centres undefined): 2100 nM.
